# According to the supplement of paper PMC4858399:
# Assays:
# [1] = test system: Caenorhabditis elegans N2; test: lowest effective concentration for larval growth inhibition (size below effect threshold); higher = less potent; settings: exposure time 48 h
# Procedure, shortened: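 Log-transformed well means of per-worm extinction, read as size on a Biosort, came from 50 C. elegans N2 L1 larvae per 96-well grown 48 h at 20°C in K-medium with killed bacteria, 1% DMSO and 0.5 to 200 µM chemical. The lowest effective concentration is the first dose at which the plate-adjusted mean size is below the threshold and stays below it at every higher dose. The threshold is 5.665.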
# [2] = test system: Caenorhabditis elegans N2; test: mean nematode size ln(EXT) after 48 h, plate-adjusted (DMSO control set to 6) (ln(EXT), control-adjusted); higher = larger nematodes / less growth inhibition; settings: exposure time 48 h
# Procedure, shortened: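 In K-medium with killed OP50, 1% DMSO and 0.5–200 µM chemical, synchronised N2 L1 larvae of C. elegans (50 per well) grew for 48 h at 20°C. Extinction was read for every worm on the Biosort, with debris removed by a growth model. Natural-log values averaged per well gave mean size, which was corrected per plate by subtracting the vehicle control mean and adding 6.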
SMILES,lowest effective concentration [1] [µM],mean nematode size ln(EXT) (ln) ([2]; 0.5 µM),mean nematode size ln(EXT) (ln) ([2]; 1 µM),mean nematode size ln(EXT) (ln) ([2]; 5 µM),mean nematode size ln(EXT) (ln) ([2]; 10 µM),mean nematode size ln(EXT) (ln) ([2]; 50 µM),mean nematode size ln(EXT) (ln) ([2]; 100 µM),mean nematode size ln(EXT) (ln) ([2]; 200 µM)
COCCOCCOC [Bis(2-methoxyethyl) ether],> 200,5.88,5.82,5.78,5.69,5.85,5.83,5.8
CC(=O)OCCC(C)C [Isoamyl acetate],> 200,5.95,5.84,5.89,5.79,5.86,5.83,5.75
COc1cc(C=O)ccc1O [4-Hydroxy-3-methoxy-benzaldehyde],> 200,5.83,5.83,5.77,5.77,5.69,5.84,5.8
"CC(=O)OC1CC(C)OC(C)O1 (stereo not drawn) [2,6-Dimethyl-1,3-dioxan-4-ol acetate]",> 200,5.93,5.93,5.88,5.95,6.12,5.75,5.84
CCCCOCCO [2-Butoxyethanol],> 200,5.93,5.98,5.92,6,6.01,5.84,5.81
O=C(O)C(Cl)Cl [Dichloroacetic acid],> 200,5.56,5.97,6.02,5.89,5.98,5.92,5.7
CN(C)C(=O)NC1(c2ccccc2)CCN(CC[C@@]2(c3ccc(F)c(F)c3)CN(C(=O)c3ccccc3)CCO2)CC1,> 200,5.89,5.86,5.86,5.8,5.9,5.92,5.68
N#C/N=C1\SCCN1Cc1ccc(Cl)nc1 [Thiacloprid],> 200,5.99,5.88,5.94,5.96,5.96,5.89,5.81
CCNc1nc(N)nc(Cl)n1 [6-Deisopropylatrazine],> 200,6.12,6.17,6.08,6.05,5.95,6,5.94
"Oc1cc(Cl)c(Cl)cc1Cl [2,4,5-Trichlorophenol]",> 200,5.83,5.83,5.83,5.78,5.77,3.41,5.81
CCOP(=O)(OCC)Oc1cc(C)nc(C(C)C)n1 [Diazoxon],> 200,6.19,6.09,6.08,6.06,6.05,6.1,5.93
